Results from patent US20250382303A1, “NOVEL COMPOUND AS NADPH OXIDASE 2 INHIBITOR AND PHARMACEUTICAL COMPOSITION CONTAINING SAME” (DONGGUK UNIVERSITY INDUSTRY-ACADEMIC COOPERATION FOUNDATION, priority 2022, published 2025).

Molecular target: T1, NOX2 (Homo sapiens, UniProt P04839)
T1 construct: Used for the NOX2 activity assay was human leukemia 60 cells (HL-60), which are widely, universally used to assess NOX2 activity; endogenous in cells
T1 sequence (P04839 2-570 limits assumed): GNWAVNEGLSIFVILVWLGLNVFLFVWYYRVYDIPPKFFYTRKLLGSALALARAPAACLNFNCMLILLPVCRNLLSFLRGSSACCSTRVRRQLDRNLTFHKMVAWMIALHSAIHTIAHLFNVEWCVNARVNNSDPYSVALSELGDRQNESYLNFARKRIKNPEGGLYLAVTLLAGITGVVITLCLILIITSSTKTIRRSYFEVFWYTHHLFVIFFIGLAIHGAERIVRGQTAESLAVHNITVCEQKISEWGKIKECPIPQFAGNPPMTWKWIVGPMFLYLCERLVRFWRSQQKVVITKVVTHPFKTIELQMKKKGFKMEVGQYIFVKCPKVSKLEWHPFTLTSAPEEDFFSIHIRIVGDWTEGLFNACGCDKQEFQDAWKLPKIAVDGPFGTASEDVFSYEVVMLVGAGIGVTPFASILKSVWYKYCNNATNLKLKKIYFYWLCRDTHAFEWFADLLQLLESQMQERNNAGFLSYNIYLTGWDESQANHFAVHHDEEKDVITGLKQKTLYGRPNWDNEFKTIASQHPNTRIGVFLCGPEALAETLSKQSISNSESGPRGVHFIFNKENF
T1 sequence (P13498 2-195 partner limits assumed): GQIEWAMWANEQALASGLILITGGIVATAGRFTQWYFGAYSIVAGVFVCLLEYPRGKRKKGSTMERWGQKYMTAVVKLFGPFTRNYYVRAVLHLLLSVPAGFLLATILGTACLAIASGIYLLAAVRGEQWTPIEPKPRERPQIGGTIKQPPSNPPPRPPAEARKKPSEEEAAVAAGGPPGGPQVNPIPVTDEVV
Experiment: NOX2 activity assay: PMA-induced ROS in ATRA-differentiated HL-60 cells (WST-1 or Amplex Red/HRP probe)
Format: cell-based
Conditions: for NOX2 inhibitory ability, verbal rating: WST-1, comment on Table 1; for IC50: WST-1 probe, differentiated HL-60, 200 ng/mL PMA, read-out: Inhibitory ability (NOX2); for concentration dependence of NOX2 inhibition: FIG. 1
Experimental: NOX activity was evaluated by measuring the reactive oxygen species (ROS) produced by NOX. The probes that were used to measure ROS were water soluble tetrazolium-1 (WST-1, superoxide-specific colorimetric probe) and Amplex Red/horseradish peroxidase (AR/HRP, hydrogen peroxide-specific fluorometric probe), and the concentration of the probes used was […]. For WST-1, the change in the absorbance at 450 nm was measured, and, for AR, the change in fluorescence signals was measured at 560 nm and 585 nm, respectively for excitation wavelength (Ex) and emission wavelength (Em). The optical signal was measured using the SpectraMax M3 microplate reader from Molecular Devices at 37° C. for 60 minutes.
Used for the NOX2 activity assay was human leukemia 60 cells (HL-60), which are widely, universally used to assess NOX2 activity. 1×10^5 cells/mL of HL-60 were treated with […] all-trans-retinoic acid (ATRA) for 4 days to induce differentiation. Differentiated HL-60 (diff. HL-60) was centrifuged at 200 g for 5 minutes and washed twice with HBSS. Differentiation was induced to reach 3×10^4 cells/well on a 96-well plate (diff). HL-60 was seeded. The test material was treated to cells and left in a 37° C. incubator for 60 minutes. As a control group, the same concentration of DMSO, which is the vehicle of the test material, was used. 200 ng/mL phorbol 12-myristate 13-acetate (PMA) was used as the NOX2 activator, and the production amount of ROS induced by PMA was measured for 60 minutes. […] diphenyleneiodonium (DPI), which is well known to inhibit NOX, was used as a positive control group to evaluate whether the NOX2 activity tester properly operates.

Row | NOX2 inhibitory ability, verbal rating | IC50 | SMILES | concentration dependence of NOX2 inhibition
1 | excellent inhibitory ability |  | COc1ccc2c(c1)C1CC(C)(O2)N(c2cccc(C(=O)N3CCc4ccccc4C3)c2)C(=O)N1 (stereo not drawn) [Compound 25e, 8-Methoxy-2-methyl-3-(3-(1,2,3,4-tetrahydroisoquinoline-2-carbonyl)phenyl)-5,6-dihydro-2H-2,6-methanobenzo[g][1,3,5]oxadiazocin-4(3H)-one] | 
2 |  | > 10 µM | CC12CC(NC(=O)N1c1cccc(C(=O)N3CCc4ccccc4C3)c1)c1cccc(Br)c1O2 (stereo not drawn) [Compound 25f, 10-Bromo-2-methyl-3-(3-(1,2,3,4-tetrahydroisoquinoline-2-carbonyl)phenyl)-5,6-dihydro-2H-2,6-methanobenzo[g][1,3,5]oxadiazocin-4(3H)-one] | 
3 |  | > 10 µM | COc1cccc2c1OC1(C)CC2NC(=O)N1c1cccc(C(=O)N2CCc3ccccc3C2)c1 (stereo not drawn) [Compound 25g, 10-Methoxy-2-methyl-3-(3-(1,2,3,4-tetrahydroisoquinoline-2-carbonyl)phenyl)-5,6-dihydro-2H-2,6-methanobenzo[g][1,3,5]oxadiazocin-4(3H)-one] | 
4 |  | 1 to 10 µM | CC12CC(NC(=O)N1c1cccc(C(=O)N3CCc4ccccc4C3)c1)c1ccc(Br)cc1O2 (stereo not drawn) [Compound 25h, 9-Bromo-2-methyl-3-(3-(1,2,3,4-tetrahydroisoquinoline-2-carbonyl)phenyl)-5,6-dihydro-2H-2,6-methanobenzo[g][1,3,5]oxadiazocin-4(3H)-one] | 
5 |  | 1 to 10 µM | CC12CC(NC(=O)N1c1cccc(C(=O)N3CCc4ccccc4C3)c1)c1ccc(C(F)(F)F)cc1O2 (stereo not drawn) [Compound 25i, 2-Methyl-3-(3-(1,2,3,4-tetrahydroisoquinoline-2-carbonyl)phenyl)-9-(trifluoromethyl)-5,6-dihydro-2H-2,6-methanobenzo[g][1,3,5]oxadiazocin-4(3H)-one] | 
6 |  | 1 to 10 µM | CC12CC(NC(=O)N1c1cccc(C(=O)N3CCc4ccccc4C3)c1)c1ccc(Cl)cc1O2 (stereo not drawn) [Compound 25j, 9-Chloro-2-methyl-3-(3-(1,2,3,4-tetrahydroisoquinoline-2-carbonyl)phenyl)-5,6-dihydro-2H-2,6-methanobenzo[g][1,3,5]oxadiazocin-4(3H)-one] | 
7 |  | > 10 µM | CC12CC(NC(=O)N1c1cccc(C(=O)N3CCc4ccccc4C3)c1)c1ccc(F)cc1O2 (stereo not drawn) [Compound 25k, 9-Fluoro-2-methyl-3-(3-(1,2,3,4-tetrahydroisoquinoline-2-carbonyl)phenyl)-5,6-dihydro-2H-2,6-methanobenzo[g][1,3,5]oxadiazocin-4(3H)-one] | 
8 |  | > 10 µM | COc1ccc2c(c1)OC1(C)CC2NC(=O)N1c1cccc(C(=O)N2CCc3ccccc3C2)c1 (stereo not drawn) [Compound 25l, 9-Methoxy-2-methyl-3-(3-(1,2,3,4-tetrahydroisoquinoline-2-carbonyl)phenyl)-5,6-dihydro-2H-2,6-methanobenzo[g][1,3,5]oxadiazocin-4(3H)-one] | 
9 |  | 1 to 10 µM | CC12CC(NC(=O)N1c1cccc(C(=O)N3CCc4ccccc4C3)c1)c1c(F)cccc1O2 (stereo not drawn) [Compound 25m, 7-Fluoro-2-methyl-3-(3-(1,2,3,4-tetrahydroisoquinoline-2-carbonyl)phenyl)-5,6-dihydro-2H-2,6-methanobenzo[g][1,3,5]oxadiazocin-4(3H)-one] | 
10 | excellent inhibitory ability | < 1 µM | CC12CC(NC(=O)N1c1cccc(C(=O)N3CCc4ccccc4C3)c1)c1cc(-c3ccsc3)ccc1O2 (stereo not drawn) [Compound 26a, 2-Methyl-3-(3-(1,2,3,4-tetrahydroisoquinoline-2-carbonyl)phenyl)-8-(thiophen-3-yl)-5,6-dihydro-2H-2,6-methanobenzo[g][1,3,5]oxadiazocin-4(3H)-one] | inhibited NOX2 activity in a concentration-dependent manner
11 | excellent inhibitory ability | < 1 µM | CC12CC(NC(=O)N1c1cccc(C(=O)N3CCc4ccccc4C3)c1)c1cc(-c3ccoc3)ccc1O2 (stereo not drawn) [Compound 26b, 8-(Furan-3-yl)-2-methyl-3-(3-(1,2,3,4-tetrahydroisoquinoline-2-carbonyl)phenyl)-5,6-dihydro-2H-2,6-methanobenzo[g][1,3,5]oxadiazocin-4(3H)-one] | inhibited NOX2 activity in a concentration-dependent manner
12 | excellent inhibitory ability | > 10 µM | CC12CC(NC(=O)N1c1cccc(C(=O)N3CCc4ccccc4C3)c1)c1cc(-c3cccs3)ccc1O2 (stereo not drawn) [Compound 26c, 2-Methyl-3-(3-(1,2,3,4-tetrahydroisoquinoline-2-carbonyl)phenyl)-8-(thiophen-2-yl)-5,6-dihydro-2H-2,6-methanobenzo[g][1,3,5]oxadiazocin-4(3H)-one] | 
13 | excellent inhibitory ability | > 10 µM | CC12CC(NC(=O)N1c1cccc(C(=O)N3CCc4ccccc4C3)c1)c1cc(-c3ccco3)ccc1O2 (stereo not drawn) [Compound 26d, 8-(furan-2-yl)-2-methyl-3-(3-(1,2,3,4-tetrahydroisoquinoline-2-carbonyl)phenyl)-5,6-dihydro-2H-2,6-methanobenzo[g][1,3,5]oxadiazocin-4(3H)-one] | 
14 | excellent inhibitory ability | > 10 µM | COc1ccc(-c2ccc3c(c2)C2CC(C)(O3)N(c3cccc(C(=O)N4CCc5ccccc5C4)c3)C(=O)N2)cc1 (stereo not drawn) [Compound 26e, 8-(4-Methoxyphenyl)-2-methyl-3-(3-(1,2,3,4-tetrahydroisoquinoline-2-carbonyl)phenyl)-5,6-dihydro-2H-2,6-methanobenzo[g][1,3,5]oxadiazocin-4(3H)-one] | 
15 |  | 1 to 10 µM | CC12CC(NC(=O)N1c1cccc(C(=O)N3CCc4ccccc4C3)c1)c1cc(N3CCOCC3)ccc1O2 (stereo not drawn) [Compound 26f, 2-Methyl-8-morpholino-3-(3-(1,2,3,4-tetrahydroisoquinoline-2-carbonyl)phenyl)-5,6-dihydro-2H-2,6-methanobenzo[g][1,3,5]oxadiazocin-4(3H)-one] | 
16 |  | 1 to 10 µM | CC12CC(NC(=O)N1c1cccc(C(=O)N3CCc4ccccc4C3)c1)c1cccc(-c3ccsc3)c1O2 (stereo not drawn) [Compound 26g, 2-Methyl-3-(3-(1,2,3,4-tetrahydroisoquinoline-2-carbonyl)phenyl)-10-(thiophen-3-yl)-5,6-dihydro-2H-2,6-methanobenzo[g][1,3,5]oxadiazocin-4(3H)-one] | 
17 |  | 1 to 10 µM | CC12CC(NC(=O)N1c1cccc(C(=O)N3CCc4ccccc4C3)c1)c1cccc(-c3ccoc3)c1O2 (stereo not drawn) [Compound 26h, 10-(Furan-3-yl)-2-methyl-3-(3-(1,2,3,4-tetrahydroisoquinoline-2-carbonyl)phenyl)-5,6-dihydro-2H-2,6-methanobenzo[g][1,3,5]oxadiazocin-4(3H)-one] | 
18 |  | 1 to 10 µM | CC12CC(NC(=O)N1c1cccc(C(=O)N3CCc4ccccc4C3)c1)c1ccc(-c3ccsc3)cc1O2 (stereo not drawn) [Compound 26i, 2-Methyl-3-(3-(1,2,3,4-tetrahydroisoquinoline-2-carbonyl)phenyl)-9-(thiophen-3-yl)-5,6-dihydro-2H-2,6-methanobenzo[g][1,3,5]oxadiazocin-4(3H)-one] | 
19 |  | 1 to 10 µM | CC12CC(NC(=O)N1c1cccc(C(=O)N3CCc4ccccc4C3)c1)c1ccc(-c3ccoc3)cc1O2 (stereo not drawn) [Compound 26j, 9-(Furan-3-yl)-2-methyl-3-(3-(1,2,3,4-tetrahydroisoquinoline-2-carbonyl)phenyl)-5,6-dihydro-2H-2,6-methanobenzo[g][1,3,5]oxadiazocin-4(3H)-one] | 
20 |  | 1 to 10 µM | CC12CC(NC(=O)N1c1cccc(C(=O)N3CCc4ccc(F)cc4C3)c1)c1cc(Br)ccc1O2 (stereo not drawn) [Compound 27a, 8-Bromo-3-(3-(7-fluoro-1,2,3,4-tetrahydroisoquinoline-2-carbonyl)phenyl)-2-methyl-5,6-dihydro-2H-2,6-methanobenzo[g][1,3,5]oxadiazocin-4(3H)-one] | 
